Source: patent US20090227521A1, “USE OF COMPOUNDS IN THE TREATMENT OF ISCHEMIA AND NEURODEGENERATION” (priority 2006, published 2009)
“And” between values parts separate entries of the source, which are not always exact repeats. Equal entries are not always repeated. *: point of attachment. Cbz = O=C(OCc1ccccc1)*

Assays:
EL-4.Ub-R-GFP-Q112 cells = assay: Ub-R-GFP-Q112 poly-Glutamine reporter substrate degradation in stably transfected EL-4 cells (flow cytometry); format: cell-based, mouse; conditions: for Ub-R-GFP-Q112 substrate level: up to 72 hours, serum-free AIM-V medium
From the text: (§1) Cells and Culture Conditions. EL-4 is a Benzpyrene-induced lymphoma cell line derived from the C57BI/6 mouse strain. EL-4.wt and EL-4.TPPII^i are EL-4 cells transfected with the pSUPER vector (Brummelkamp, T R, Bernards, R, Agami, R. A system for stable expression of short interfering RNAs in mammalian cells. Science 2002; 296:550-3), empty versus containing the siRNA directed against TPPII. HeLa cells are human cervical carcinoma cells. For induction of stress, cells were starved by growth in 50%-75% Phosphate Buffered Saline (PBS) or gamma-irradiated 250-2000 Rad's; and incubated at 37° C. and 5.3% CO2. Our flow cytometric data represent live cells as determined by flow cytometric gating with Propidium Iodide (PI). For generation of stable transfectants, 5×10^6 cells were washed in PBS, then resuspended into 500 micro-I of PBS in a Bio-Rad gene-pulser and pulsed with 10 micro-g DNA and 250 V at 960 micro-F; and selected by resistance to G418. UbGV76-GFP is a ubiquitin-fusion construct that creates a rapidly degraded GFP molecule for monitoring 26S proteasome activity in live cells through flow cytometry (Dantuma, N. P, Lindsten, K., Glas, R., Jellne, M., and Masucci, M. G. 2000. Short-lived green fluorescent proteins for quantifying ubiquitin/proteasome-dependent proteolysis in living cells. Nat. Biotechnol. 18:538-43). Ub-R-GFP is a similar vector that also encodes a highly unstable GFP molecule degraded through the ubiquitin-proteasome pathway. Ub-R-GFP-Q112 is the same substrate but contains an extended C-terminal with 112 glutamines (Verhoef, L. G., Lindsten, K., Masucci, M. G. and Dantuma, N. P. 2002. Aggregate formation inhibits proteasomal degradation of polyglutamine proteins. Hum Mol. Genet. 11:2689-700).
Flow Cytometry. Fluorescence was quantified by a FACScalibur. Flow cytometric cell sorting of live cells was performed by incubation of cells for 5 minutes with 2 micro-g/ml of Propidium Iodide (PI) and subsequent sorting into PI^+ and PI^− populations with a FACSvantage. […]

EL-4 cells [1] = assay: Nuclear localization of proteasomes in starved EL-4 cells (immunohistochemistry); format: cell-based, mouse; conditions: starvation, 100 micro-M
From the text: as §1, with “Ub-R-GFP is a similar vector that also encodes a highly unstable GFP molecule degraded through the ubiquitin-proteasome pathway. Ub-R-GFP-Q112 is the same substrate but contains an extended C-terminal with 112 glutamines (Verhoef, L. G., Lindsten, K., Masucci, M. G. and Dantuma, N. P. 2002. Aggregate formation inhibits proteasomal degradation of polyglutamine proteins. Hum Mol. Genet. 11:2689-700).” left out

HeLa cells = assay: Nuclear localization of proteasomes in starved HeLa cells (immunohistochemistry); format: cell-based, human; conditions: starvation, 100 micro-M
From the text: as §1, with “Ub-R-GFP is a similar vector that also encodes a highly unstable GFP molecule degraded through the ubiquitin-proteasome pathway. Ub-R-GFP-Q112 is the same substrate but contains an extended C-terminal with 112 glutamines (Verhoef, L. G., Lindsten, K., Masucci, M. G. and Dantuma, N. P. 2002. Aggregate formation inhibits proteasomal degradation of polyglutamine proteins. Hum Mol. Genet. 11:2689-700).” left out

EL-4 cells [2] = assay: Western blotting of TPPII, proteasome alpha-3 and p53 in stressed EL-4 cells; format: cell-based, mouse
From the text: as §1, with “Ub-R-GFP-Q112 is the same substrate but contains an extended C-terminal with 112 glutamines (Verhoef, L. G., Lindsten, K., Masucci, M. G. and Dantuma, N. P. 2002. Aggregate formation inhibits proteasomal degradation of polyglutamine proteins. Hum Mol. Genet. 11:2689-700).” left out
Protein Purification, Peptidase Assays and Analysis of DNA Fragmentation. […] Cleavage activity was measured by emission at 460 nm in a LS50B Luminescence Spectrometer (Perkin Elmer, Boston, Mass.). […]
Antibodies and Antisera. The following molecules were detected by the antibodies specified: GFP by rabbit anti-GFP serum (Molecular Probes Europe, Breda, The Netherlands); 19S proteasomal complexes by anti-Rpt6 (19S base ATPase subunit), 20S proteasomal complexes by (Affinity, Exeter, UK); For detection of TPPII we used chicken anti-TPPII serum (Immunsystem, Uppsala, Sweden). […]

TPP II = biological target: T1, TPP II (Mus musculus, UniProt Q64514); assay: Inhibition of cleavage of AAF-AMC by enriched TPP II (peptidase assay); format: biochemical; conditions: for cleavage of AAF-AMC, mean: mean of three
T1 construct: 1 ug of high molecular weight protein was used as enzyme in peptidase assays; endogenous in cells
T1 sequence (Q64514 2-1262 limits assumed): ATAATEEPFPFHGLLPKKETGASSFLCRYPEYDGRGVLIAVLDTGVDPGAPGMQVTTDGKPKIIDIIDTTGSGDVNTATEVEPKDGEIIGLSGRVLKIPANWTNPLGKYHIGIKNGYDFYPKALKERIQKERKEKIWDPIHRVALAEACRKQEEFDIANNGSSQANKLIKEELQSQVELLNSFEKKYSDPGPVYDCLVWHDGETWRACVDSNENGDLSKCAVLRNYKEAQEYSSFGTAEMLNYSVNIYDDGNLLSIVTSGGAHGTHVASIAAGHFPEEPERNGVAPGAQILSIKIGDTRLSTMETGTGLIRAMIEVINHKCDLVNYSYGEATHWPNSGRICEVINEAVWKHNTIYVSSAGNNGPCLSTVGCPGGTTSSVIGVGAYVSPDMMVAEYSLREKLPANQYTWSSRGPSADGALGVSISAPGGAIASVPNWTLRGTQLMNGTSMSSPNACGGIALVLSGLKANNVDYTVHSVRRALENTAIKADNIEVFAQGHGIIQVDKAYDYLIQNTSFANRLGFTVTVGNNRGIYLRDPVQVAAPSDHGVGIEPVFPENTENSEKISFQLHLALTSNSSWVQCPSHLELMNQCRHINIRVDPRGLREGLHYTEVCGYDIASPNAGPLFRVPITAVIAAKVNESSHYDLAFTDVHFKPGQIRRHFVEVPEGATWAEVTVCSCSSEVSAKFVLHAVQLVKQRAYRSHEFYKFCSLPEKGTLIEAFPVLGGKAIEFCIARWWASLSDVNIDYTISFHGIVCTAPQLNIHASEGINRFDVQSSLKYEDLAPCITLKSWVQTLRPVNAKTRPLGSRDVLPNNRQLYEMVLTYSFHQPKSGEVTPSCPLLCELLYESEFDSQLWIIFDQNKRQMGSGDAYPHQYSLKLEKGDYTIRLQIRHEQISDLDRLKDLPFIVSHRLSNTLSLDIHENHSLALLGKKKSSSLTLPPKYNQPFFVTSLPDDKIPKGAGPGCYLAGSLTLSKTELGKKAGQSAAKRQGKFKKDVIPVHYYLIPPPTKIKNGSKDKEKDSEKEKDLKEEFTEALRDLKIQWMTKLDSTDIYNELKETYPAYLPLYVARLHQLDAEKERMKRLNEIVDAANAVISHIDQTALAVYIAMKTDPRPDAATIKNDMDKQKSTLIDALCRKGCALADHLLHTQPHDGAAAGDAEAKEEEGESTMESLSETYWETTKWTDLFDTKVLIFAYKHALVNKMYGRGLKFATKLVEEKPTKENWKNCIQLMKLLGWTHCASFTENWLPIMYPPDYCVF
Protocol: It is not necessary to achieve a particularly high level of purification, and conventional simple techniques can be used to obtain TPP II of sufficient quality to use in a screening method. In one non-limiting example of purification of TPP II, 100×10^6 cells (such as EL-4 cells) were sedimented and lysed by vortexing in glass beads and homogenisation buffer (50 mM Tris Base pH 7.5, 250 mM Sucrose, 5 mM MgCl2, 1 mM DTT). Cellular lysates were subjected to differential centrifugation; first the cellular homogenate was centrifuged at 14,000 rpm for 15 min, and then the supernatant was transferred to ultra-centrifugation tubes. Next the sample was ultra-centrifugated at 100,000×g for 1 hour, and the supernatant (denoted as cytosol in most biochemical literature) was subjected to 100,000×g centrifugation for 5 hours, which sedimented high molecular weight cytosolic proteins/protein complexes. The resulting pellet dissolved in 50 mM Tris Base pH 7.5, 30% Glycerol, 5 mM MgCl2, and 1 mM DTT, and 1 ug of high molecular weight protein was used as enzyme in peptidase assays.
It is possible to test the activity of TPP II using for example the substrate AAF-AMC (Sigma, St. Louis, Mo.). This may for example be used at 100 uM concentration in 100 ul of test buffer composed of 50 mM Tri Base pH 7.5, 5 mM MgCl2 and 1 mM DTT. It is possible to stop reactions using dilution with 900 ul 1% SDS solution. Cleavage activity may be measured for example by emission at 460 nm in a LS50B Luminescence Spectrometer (Perkin Elmer, Boston, Mass.).
Protein Purification, Peptidase Assays and Analysis of DNA Fragmentation. 100×10^6 cells were sedimented and lysed by vortexing in glass beads and homogenisation buffer (50 mM Tris Base pH 7.5, 250 mM Sucrose, 5 mM MgCl2, 1 mM DTT). Cellular lysates were submitted to differential centrifugation where a supernatant from a 1 hour centrifugation at 100,000×g (cytosol) was submitted to 100,000×g centrifugation for 3-5 hours, which sedimented high molecular weight cytosolic proteins/protein complexes. The resulting pellet dissolved in 50 mM Tris Base pH 7.5, 30% Glycerol, 5 mM MgCl2, and 1 mM DTT, and 1 micro-g of high molecular weight protein was used as enzyme in peptidase assays or in Western blotting for TPP II expression. To test the activity of TPP II we used the substrate AAF-AMC (Sigma, St. Louis, Mo.), at 100 micro-M concentration in 100 micro-I of test buffer composed of 50 mM Tri Base pH 7.5, 5 mM MgCl2 and 1 mM DTT. Cleavage activity was measured by emission at 460 nm in a LS50B Luminescence Spectrometer (Perkin Elmer, Boston, Mass.). For analysis of DNA fragmentation cells were seeded in 12-well plates at 10^6 cells/ml and exposed to 25 micro-M etoposide, a DNA topoisomerase II inhibitor commonly used as an apoptosis-inducing agent, to starvation (50% PBS). Cells were seeded at 10^6 cells/ml in 12-well plates and incubated for the indicated times, usually 18-24 hours. DNA from EL-4 control and adapted cells was purified by standard chloroform extraction, and 2.5 micro-g of DNA was loaded on 1.8% agarose gel for detection of DNA from apoptotic cells.
TPP II protein was enriched, and then a TPP II-preferred fluorogenic substrate AAF-AMC was used. 100×10^6 cells were sedimented and lysed by vortexing in glass beads and homogenisation buffer (50 mM Tris Base pH 7.5, 250 mM Sucrose, 5 mM MgCl2, 1 mM DTT). Cellular lysates were subjected to differential centrifugation; first the cellular homogenate was centrifuged at 14,000 rpm for 15 min, and then the supernatant was transferred to ultra-centrifugation tubes. Next the sample was ultra-centrifugated at 100,000×g for 1 hour, and the supernatant (denoted as cytosol in most biochemical literature) was subjected to 100,000×g centrifugation for 5 hours, which sedimented high molecular weight cytosolic proteins/protein complexes. […]

Subtilisin = conditions: bacterial homologue of eukaryotic TPP II; cited from earlier work
EL-4.Ub-R-GFP cells = assay: GFP reporter substrate fluorescence in EL-4.Ub-R-GFP cells (flow cytometry); format: cell-based, mouse; conditions: live cells, proteasomal inhibitor treatment
From the text: as §1, with “Ub-R-GFP is a similar vector that also encodes a highly unstable GFP molecule degraded through the ubiquitin-proteasome pathway. Ub-R-GFP-Q112 is the same substrate but contains an extended C-terminal with 112 glutamines (Verhoef, L. G., Lindsten, K., Masucci, M. G. and Dantuma, N. P. 2002. Aggregate formation inhibits proteasomal degradation of polyglutamine proteins. Hum Mol. Genet. 11:2689-700).” left out
(§2) Flow Cytometry. Fluorescence was quantified by a FACScalibur. […]

HeLa.UbGV76-GFP cells = assay: GFP reporter substrate fluorescence in HeLa.UbGV76-GFP cells (flow cytometry); format: cell-based, human; conditions: live cells, proteasomal inhibitor treatment
From the text: as §1, with “Ub-R-GFP is a similar vector that also encodes a highly unstable GFP molecule degraded through the ubiquitin-proteasome pathway. Ub-R-GFP-Q112 is the same substrate but contains an extended C-terminal with 112 glutamines (Verhoef, L. G., Lindsten, K., Masucci, M. G. and Dantuma, N. P. 2002. Aggregate formation inhibits proteasomal degradation of polyglutamine proteins. Hum Mol. Genet. 11:2689-700).” left out
as §2

CCCCNC(=O)[C@@H]1Cc2ccccc2N1C(=O)[C@@H](N)CC [Butabindide]
Ub-R-GFP-Q112 substrate level (EL-4.Ub-R-GFP-Q112 cells; 100 micro-M): gradual decline
nuclear localization of proteasomes (EL-4 cells [1]): inhibited nuclear localization of proteasomes
nuclear localization of proteasomes (HeLa cells): inhibited nuclear localization of proteasomes
stabilization of p53 (EL-4 cells [2]; gamma-irradiated (500 Rad) EL-4.wt cells, 100 micro-M from 2 hours before onset): prevent

Cbz-Gly-Leu-Ala-OH [Z-GLA-OH]
cleavage of AAF-AMC, single determination (TPP II; compound at 1 nM): 32.54 fluorometric units and 32.61 fluorometric units and 33.41 fluorometric units
cleavage of AAF-AMC, mean (TPP II; compound at 1 nM): 32.85 fluorometric units
cleavage of AAF-AMC, single determination (TPP II; compound at 10 nM): 21.74 fluorometric units and 21.93 fluorometric units and 24.44 fluorometric units
cleavage of AAF-AMC, mean (TPP II; compound at 10 nM): 22.70 fluorometric units
cleavage of AAF-AMC, single determination (TPP II; compound at 100 nM): 14.43 fluorometric units and 14.26 fluorometric units and 14.37 fluorometric units
cleavage of AAF-AMC, mean (TPP II; compound at 100 nM): 14.35 fluorometric units
cleavage of AAF-AMC, single determination (TPP II; compound at 1 uM): 11.43 fluorometric units and 11.9 fluorometric units and 11.46 fluorometric units
cleavage of AAF-AMC, mean (TPP II; compound at 1 uM): 11.60 fluorometric units
cleavage of AAF-AMC, single determination (TPP II; compound at 10 uM): 6.47 fluorometric units and 7.66 fluorometric units and 7.49 fluorometric units
cleavage of AAF-AMC, mean (TPP II; compound at 10 uM): 7.21 fluorometric units
cleavage of AAF-AMC, single determination (TPP II; compound at 100 uM, arbitrary but relative units, lower = more inhibition): 1.14 fluorometric units and 1.44 fluorometric units and 1.55 fluorometric units
cleavage of AAF-AMC, mean (TPP II; compound at 100 uM): 1.38 fluorometric units
Ub-R-GFP-Q112 substrate level (EL-4.Ub-R-GFP-Q112 cells; 25-microM): gradual decline
TPPII expression (EL-4 cells [2]; gamma-irradiated (500 Rad) EL-4.wt cells, 25 micro-M): strong reduction
inhibition of Subtilisin (Subtilisin): inhibit

CC(C)C[C@@H](/C=C/S(C)(=O)=O)NC(=O)[C@H](CC(C)C)NC(=O)[C@H](CC(C)C)NC(=O)Cc1cc(I)c(O)c([N+](=O)[O-])c1 [NLVS, 4-hydroxy-5-iodo-3-nitrophenylacetyl-Leu-Leu-Leu-vinyl sulphone]
accumulation of Ub-R-GFP-Q112 substrate not degraded (EL-4.Ub-R-GFP-Q112 cells; treatment with NLVS): further increased accumulation
steady state levels of GFP-fluorescence (EL-4.Ub-R-GFP cells): strong increase
steady state levels of GFP-fluorescence (HeLa.UbGV76-GFP cells): strong increase
rapid TPPII down regulation during wortmannin treatment (EL-4 cells [2]; starved EL-4 cells, with 1 micro-M wortmannin): prevented
